# Test results reported in EP1647279A2, “Inhibition of apoptosis using interleukin-1beta-converting enzyme (ICE)/CED-3 family inhibitors” (priority 1996, dated 1998).
# pIC50: −log10 of the molar value. Residues, ends and D or L forms follow the SMILES beside them. *: point of attachment. Cbz = O=C(OCc1ccccc1)*; CH2F = FC*
# Experiments:
# Type in all cases: cell-based
# [1] = tested on: granulocytes; assay: Granulocyte survival in culture: analysis of hypodiploid nuclei by flow cytometry (propidium iodide); details: Figure 6; for pIC50: isolated granulocytes cultured at 37°C, nuclear hypodiploidy, propidium iodide stain via flow cytometry, read-out: IC50 (effects on granulocyte survival)
# Experimental: Whole blood anticoagulated with Acid Citrate Dextrose (ACD) with a ratio of 1:5 ACD to blood was collected (~100 ml).
# Using polypropylene plastic ware, neutrophils are isolated as follows: 30 ml of the whole blood is added to 50 ml polypropylene centrifuge tubes containing 15 ml of 6% Dextran (in Saline). The blood is allowed to sediment for approximately 1 hour at room temperature.
# The turbid straw colored layer harvested from the top of the cylinders into 50 ml conical polypropylene tubes. The blood cells were pelleted by centrifugation at 240 xg (Sorvall centrifuge at 1200 rpm) for 12 min. at 4°C with the brake on low.
# The supernatant was aspirated and the pooled pellet resuspended in 40-50 ml cold PBS (w/o Ca, Mg), and centrifuged at 240 xg (Sorvall centrifuge at 1200 rpm) for 6 min. at 4°C with the brake on high.
# The supernatant was aspirated and the pellet resuspended in 12 ml of cold cell culture grade water. The suspension was titriated gently with a pipet for 30 seconds then add 4 ml of cold 0.6 M KCl. (Brought up to 50 ml with cold PBS (w/o Ca, Mg)) and then centrifuged at 300 xg (Sorvall centrifuge at 1400 rpm) for 6 min. at 4°C with the brake on high.
# The above was repeated one time.
# The supernatant was aspirated and the cells resuspended in 2.5 ml cold PBS (w/o Ca, Mg). The cell suspension was layered over 3 ml Ficoll-Hypaque in a 15 ml polypropylene conical tube and centrifuged at 400 xg (Sorvall centrifuge at 1900 rpm) for 30 min. at 4°C with the brake on low.
# The suspension aspirated was down to the neutrophil pellet. […]
# The supernatant was aspirated and the neutrophil pellet resuspended in 4.0 ml cold PBS (w/o Ca, Mg) on ice. 10 µl of the neutrophil cell suspension was diluted with 990 µl of Trypan blue (1:100) and cells counted using a hemacytometer. The cell number and viability were determined. […]
# • (50 µg/ml propidium iodide (Sigma catalog#P4170); 0.1% Triton X-100; and 0.1% sodium citrate). • Neutrophils were pelleted at 4°C and the supernate aspirated. • Neutrophils were resuspended in hypotonic fluorochrome solution at a density of 5x10^6 cells/ml. Propidium iodide fluorescence of individual nuclei was evaluated in FL2 and measured on a logarithmic scale while gating on physical parameters in forward and side scatter to exlude cell debris.
# At least 10,000 events per sample were collected and the results were evaluated relative to a non-apoptotic neutrophil population. […]
# The present invention provides methods to enhance the ex vivo survival of neutrophils/granulocytes. […] The presence of hypodiploid DNA is a measure of apoptosis, and is assessed using a propidium iodide stain via flow cytometry. […]
# [2] = tested on: granulocytes; assay: Respiratory burst in isolated neutrophils measured by chemiluminescence (opsonized zymosan, lucigenin); details: Figure 7
# Experimental: Whole blood anticoagulated with Acid Citrate Dextrose (ACD) with a ratio of 1:5 ACD to blood was collected (150 ml). Neutrophils were isolated as described above.
# Opsonized zymosan was prepared by suspending 125 mg zymosan particles in 25 ml pooled human serum (5 mg/ml) and incubating them for 20 minutes at 37°C. Centrifuge the suspension and resuspend the particles in 7 ml of PBS (18 mg/ml) and stored on ice until use (vortex prior to pipetting).
# 50 ml of a 250 µM solution of Lucigenin (MW 510.5) was prepared by dissolving 6.4 mg of the solid in 50 ml of PBS-G (+ Ca, Mg). 10 µl of PBS-G (+ Ca, Mg) to the wells in a white 96 well plate.
# 50 µl of the 250 µM Lucigenin solution was added to the wells in a white 96 well plate.
# Cell preparations were obatined from cell culture (concentration at time zero= 5.0 x 10^6 cells/ml) with PBS-G (+ Ca, Mg).
# 20 µl of the neutrophil suspension was suspended to the appropriate wells and the plate was incubated the plate at 37° C for three minutes. 10 µl of the opsonized zymosan was added to the wells.
# The plate was read on the luminometer (Labsystems Luminoskan, Needham Heights, MA) for 14 min. at 37° C in the kinetic mode and record results using the software DeltaSoft.
# The ability to undergo the respiratory burst is another measure of granulocyte viability. The respiratory burst is a physiological response of granulocytes to foreign stimuli such as bacteria. In this example, the method for inducing the respiratory burst utilized opsonized bacterial zymosan. The respiratory burst was measured via chemiluminescence.
# [3] = tested on: granulocytes in whole blood; assay: Whole blood assay: survival of granulocytes by hypodiploid analysis via flow cytometry
# Experimental: The following reagents were used: • anti-CD32-FITC monoclonal antibody obtained from Pharmingen. • Lysing Solution (10X Stock: 89.9 g NH4Cl; • 10.0 g KHCO; • 0.37 g tetrasodium EDTA; • dissolve in 1 liter dH2O. Adjust to pH 7.3. Store at 4°C in a tightly closed bottle. • Dilute 1:10 with dH2O prior to use.) • (DPBS without calcium or magnesium obtained from Irivine Scientific. • 2% fetal bovine serum in DPBS stored at 4°C. • 50 µg/ml propidium iodide in DPBS sterile filtered and stored at 4°C.)
# The following protocol was followed: • 200 µl blood sample/2.8 ml 1X lysis solution in a 15 ml polypropylene conical tube. • Cap and invert to mix. Leave at room temperature for 3-5 minutes. • Centrifuge in a table-top Sorvall at 1200 rpm for 5 minutes at 4°C. • Aspirate supernate. Resuspend pellet in 200 µl/sample 2% FBS/DPBS. Add 20 µl/sample anti-CD32-FITC. Incubate 30 minutes on ice in the dark. • Add 5 ml/sample DPBS. Centrifuge at 1000 rpm for 5 minutes at 4°C. • Aspirate supemate. Resuspend pellet in 1 ml/sample 2% FBS/DPBS. • Add 3 ml/sample ice-cold 95% EtOH dropwise while vortexing gently. • Incubate samples on ice in the dark for 30 minutes. • Centrifuge at 1000 rpm for 5 minutes at 4°C. • Resuspend each sample in 50 µl 5 mg/ml RN'ase. Transfer sample to 900 µl/sample • 50 µg/ml Propidium Iodide in 12x75 mm Falcon polystyrene tubes. • Incubate on ice for 30 minutes. • Analyze samples by flow cytometry (argon laser) for forward and side scatter and fluorescence.
# Survival of granulocytes in whole blood was measured by hypodiploid analysis in a similar fashion to isolated granulocytes via flow cytometry. ICE/ced-3 inhibitors of the present invention maintained survival of granulocytes in whole blood for 96 hours at room temperature as indicated in the table below: Percentage of diploid granulocytes in whole blood
# [4] = after granulocyte culture for 72 hours
# [5] = granulocyte culture for 48 hours
Structure (SMILES),pIC50 [1],"respiratory burst [2, 4]","respiratory burst [2, 5]",Percentage of diploid granulocytes in whole blood ([3]; 96 hours at room temperature) [%],"Percentage of diploid granulocytes in whole blood ([3]; time zero, 0 min) [%]",respiratory burst ([2]; no time stated),"effect on improving granulocyte survival ([1]; isolated granulocytes in culture, at 48 hours)"
O=C(O)CC(NC(=O)[C@@H]1Cc2cccc3c2N1C(=O)[C@@H](NC(=O)OCc1ccccc1)CC3)C(=O)CF (relative stereo) [Example 106],> 5.30,–,–,–,–,–,–
"Cc1c(C(=O)N[C@H](C(=O)NC(CC(=O)O)C(=O)CF)C(C)C)n(C)c2ccccc12 (stereo partly shown) [Example 43, N-[(1,3-Dimethylindole-2-Carbonyl)Valinyl]-3-Amino-4-Oxo-5-Fluoropentanoic Acid]",> 5.30,partially maintained,substantially maintained,91,96,–,–
"Cc1c(C(=O)N[C@H](C(=O)NC(CC(=O)O)C(=O)COC(=O)c2c(Cl)cccc2Cl)C(C)C)n(C)c2ccccc12 (stereo partly shown) [Example 70, N-[N-(1,3-Dimethyl-indole-2-carbonyl)-Valinyl]-3-amino-5-(2,6-dichlorobenzoyl)oxy-4-oxo-pentanoic acid]",> 5.30,partially maintained,substantially maintained,89,96,–,–
"COC(=O)C[C@H](NC(=O)[C@H](C)NC(=O)[C@@H](NC(=O)OCc1ccccc1)C(C)C)C(=O)CF [zVADfmk, reference compound] (Cbz-Val-Ala-Asp(OMe)-CH2F)",–,–,–,–,–,did not maintain the respiratory burst,weak effect
